Test results from paper PMC3066540, “Molecular characterization of O-methyltransferases involved in isoquinoline alkaloid biosynthesis in Coptis japonica” (Proceedings of the Japan Academy. Series B, Physical and …, 2010).

How the values were obtained:
64′-OMT [1] = system: T1, 64′-OMT; assay: [3H]methyl transfer assay, double-reciprocal plots with secondary replots; type: biochemical, Coptis japonica; settings: 30 °C
T1 construct: gene 6-OMT; pET-21d, no vector-derived peptides, E. coli BL21(DE3), purified; subunit ca. 40 kDa, native ca. 63 kDa, dimer

6-OMT = molecular target: T2, 6-OMT (Coptis japonica, UniProt Q9LEL6); assay: LC/MS product analysis; type: biochemical; settings: 1 mM acceptor, 1 mM AdoMet, pH 7.5, 30 °C; presumed 3'-O-methylation; crude E. coli lysate
T2 construct: full length, recombinant in E. coli, crude lysate; dimer
T2 sequence (Q9LEL6 whole entry): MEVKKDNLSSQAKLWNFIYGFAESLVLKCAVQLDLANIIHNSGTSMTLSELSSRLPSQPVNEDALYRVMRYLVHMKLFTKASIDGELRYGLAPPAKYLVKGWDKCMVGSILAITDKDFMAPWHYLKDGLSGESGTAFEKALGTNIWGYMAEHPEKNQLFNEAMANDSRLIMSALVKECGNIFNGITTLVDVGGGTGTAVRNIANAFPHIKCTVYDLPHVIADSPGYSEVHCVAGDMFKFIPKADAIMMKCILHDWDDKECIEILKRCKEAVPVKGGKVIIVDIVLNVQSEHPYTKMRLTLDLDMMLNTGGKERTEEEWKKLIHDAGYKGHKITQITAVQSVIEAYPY

64′-OMT [2] = molecular target: T1, 64′-OMT; assay: [3H]methyl transfer assay, inhibition kinetics; type: biochemical, Coptis japonica; settings: competitive with AdoMet; varied substrate AdoMet, methyl acceptor norlaudanosoline; 30 °C

## Oc1ccc(CC2NCCc3cc(O)c(O)cc32)cc1O (racemic) [(R,S)-norlaudanosoline]
64′-OMT [1]; co-substrate [3H]AdoMet varied
  Km: 109 µM

## COc1cc2c(cc1O)[C@H](Cc1ccc(O)c(O)c1)N(C)CC2 [3′-hydroxy-N-methylcoclaurine]
6-OMT
  LC/MS product analysis: 6-OMT showed a weak but evident peak that was distinct

## Nc1ncnc2c1ncn2[C@@H]1O[C@H](CSCC[C@H](N)C(=O)O)[C@@H](O)[C@H]1O [AdoHcy]
64′-OMT [2]
  Ki: 70 µM

## C[S+](CC[C@H](N)C(=O)O)C[C@H]1O[C@@H](n2cnc3c(N)ncnc32)[C@H](O)[C@@H]1O (stereo partly shown) [AdoMet]
64′-OMT [1]; co-substrate (R,S)-norlaudanosoline varied, labelled compound
  Km: 187 µM
